Measured values taken from ChEMBL document CHEMBL1681640, “Serendipitous discovery of a new class of agonists for the melanocortin 1 and 4 receptors and a new class of cyclophanes” (Bioorg Med Chem Lett, 2011).
Activity calls are given as the source filed them. The rule behind the calls is not given here.

What was measured:
[1] = target: T1, Melanocyte-stimulating hormone receptor (Homo sapiens, UniProt Q01726); assay: Displacement of [125I]NDP-alpha-MSH from human MC1 receptor expressed in BHK cells; format: cell-based
Target sequence in this assay (Q01726 whole entry): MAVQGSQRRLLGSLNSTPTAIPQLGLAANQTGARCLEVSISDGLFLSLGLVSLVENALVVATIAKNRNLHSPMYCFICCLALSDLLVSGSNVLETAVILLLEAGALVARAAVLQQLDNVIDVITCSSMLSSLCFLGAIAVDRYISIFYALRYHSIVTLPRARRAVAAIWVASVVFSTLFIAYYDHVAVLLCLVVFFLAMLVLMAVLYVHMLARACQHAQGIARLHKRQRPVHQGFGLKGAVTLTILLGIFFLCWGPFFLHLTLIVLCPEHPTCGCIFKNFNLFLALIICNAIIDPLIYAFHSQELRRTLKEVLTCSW

Melanocortin receptor 3 [2] = target: T2, Melanocortin receptor 3 (Homo sapiens, UniProt P41968); assay: Displacement of [125I]NDP-alpha-MSH from human MC3 receptor expressed in BHK cells; format: cell-based
T2 sequence (P41968 whole entry): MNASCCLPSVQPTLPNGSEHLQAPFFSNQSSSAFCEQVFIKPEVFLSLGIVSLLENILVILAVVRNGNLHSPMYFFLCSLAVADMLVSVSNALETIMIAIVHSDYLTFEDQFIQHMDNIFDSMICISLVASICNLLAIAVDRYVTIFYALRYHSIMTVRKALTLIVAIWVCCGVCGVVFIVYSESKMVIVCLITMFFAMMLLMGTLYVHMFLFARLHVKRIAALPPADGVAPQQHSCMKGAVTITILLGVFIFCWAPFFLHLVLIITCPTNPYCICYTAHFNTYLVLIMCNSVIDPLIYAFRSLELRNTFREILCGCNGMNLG

Melanocortin receptor 4 [3] = target: T3, Melanocortin receptor 4 (Homo sapiens, UniProt P32245); assay: Displacement of [125I]NDP-alpha-MSH from human MC4 receptor expressed in BHK cells; format: cell-based
Target sequence in this assay (P32245 whole entry): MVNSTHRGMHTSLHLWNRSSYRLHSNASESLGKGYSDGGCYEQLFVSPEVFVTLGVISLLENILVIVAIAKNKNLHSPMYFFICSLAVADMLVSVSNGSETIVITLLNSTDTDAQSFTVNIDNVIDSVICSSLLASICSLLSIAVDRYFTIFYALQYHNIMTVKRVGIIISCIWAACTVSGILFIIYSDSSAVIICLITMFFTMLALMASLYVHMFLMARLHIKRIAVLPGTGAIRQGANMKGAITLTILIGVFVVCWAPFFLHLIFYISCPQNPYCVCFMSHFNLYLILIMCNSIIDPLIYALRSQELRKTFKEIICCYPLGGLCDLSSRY

Melanocortin receptor 5 [4] = target: T4, Melanocortin receptor 5 (Homo sapiens, UniProt P33032); assay: Displacement of [125I]NDP-alpha-MSH from human MC5 receptor expressed in BHK cells; format: cell-based
T4 sequence (P33032 whole entry): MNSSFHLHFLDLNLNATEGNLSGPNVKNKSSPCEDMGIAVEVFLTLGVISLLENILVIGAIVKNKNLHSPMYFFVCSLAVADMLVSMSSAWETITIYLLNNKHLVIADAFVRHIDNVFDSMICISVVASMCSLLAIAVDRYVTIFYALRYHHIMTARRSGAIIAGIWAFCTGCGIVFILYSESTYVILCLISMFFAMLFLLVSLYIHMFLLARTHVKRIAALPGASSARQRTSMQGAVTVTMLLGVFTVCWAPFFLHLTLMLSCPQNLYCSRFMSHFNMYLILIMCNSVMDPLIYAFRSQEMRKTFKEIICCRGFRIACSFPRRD

[5] = target: T1, Melanocyte-stimulating hormone receptor; assay: Agonist activity at human MC1 receptor expressed in BHK cells assessed as stimulation of agonist-induced cAMP accumulation; format: functional, cell-based
Target sequence in this assay (Q01726 whole entry): as the sequence (Q01726 whole entry) above

[6] = target: T1, Melanocyte-stimulating hormone receptor; assay: Agonist activity at human MC1 receptor expressed in BHK cells assessed as stimulation of agonist-induced cAMP accumulation relative to agonist; format: functional, cell-based
Target sequence in this assay (Q01726 whole entry, looked up): as the sequence (Q01726 whole entry) above

Melanocortin receptor 3 [7] = target: T2, Melanocortin receptor 3; assay: Agonist activity at human MC3 receptor expressed in BHK cells assessed as stimulation of agonist-induced cAMP accumulation; format: functional, cell-based
Melanocortin receptor 4 [8] = target: T3, Melanocortin receptor 4; assay: Agonist activity at human MC4 receptor expressed in BHK cells assessed as stimulation of agonist-induced cAMP accumulation; format: functional, cell-based
Target sequence in this assay (P32245 whole entry): as the sequence (P32245 whole entry) above

Melanocortin receptor 4 [9] = target: T3, Melanocortin receptor 4; assay: Agonist activity at human MC4 receptor expressed in BHK cells assessed as stimulation of agonist-induced cAMP accumulation relative to agonist; format: functional, cell-based
Target sequence in this assay (P32245 whole entry): as above

Melanocortin receptor 5 [10] = target: T4, Melanocortin receptor 5; assay: Agonist activity at human MC5 receptor expressed in BHK cells assessed as stimulation of agonist-induced cAMP accumulation; format: functional, cell-based
Melanocortin receptor 4 [11] = target: T3, Melanocortin receptor 4; assay: Inhibition of human MC4 receptor expressed in BHK cells in presence of SHU9119 receptor antagonist
Target sequence in this assay (P32245 whole entry, looked up): as the sequence (P32245 whole entry) above

Rattus norvegicus = assay: Reduction in food intake in Sprague-Dawley rat at 0.1 to 1 mg/kg, ip for first 3 hrs; format: functional, organism-based

Row | Ki [1] | Ki (Melanocortin receptor 3 [2]) | Ki (Melanocortin receptor 4 [3]) | Ki (Melanocortin receptor 5 [4]) | EC50 [5] | Emax [6] | EC50 (Melanocortin receptor 3 [7]) | EC50 (Melanocortin receptor 4 [8]) | Emax (Melanocortin receptor 4 [9]) | EC50 (Melanocortin receptor 5 [10]) | inhibition (Melanocortin receptor 4 [11]) | Structure (SMILES) | Activity (Rattus norvegicus)
1 | 328 nM | 4530 nM | 403 nM | 1530 nM | 12 nM | 85% | > 10000 nM | 697 nM | 98% | > 10000 nM | Active | COCC(=O)N[C@H]1Cc2cc3c(c(c2)Cc2ccc(cc2)Oc2cccc(c2)CN(CCCN2CCN(CCCN)CC2)C1=O)OCOC3 | –
2 | 116 nM | 1180 nM | 392 nM | 388 nM | 16 nM | 83% | > 10000 nM | 466 nM | 61% | > 10000 nM | Active | COCC(=O)N[C@H]1Cc2ccc(OC)c(c2)Cc2ccc(cc2)Oc2cccc(c2)CN(CCCN2CCN(CCCN)CC2)C1=O | Active
